Measurements reported in patent publication US20250243160A1, “INDOLE DERIVATIVES FOR TARGETING AUTOPHAGY” (Automera PTE. LTD, priority 2024, published 2025).

What was measured:
[1] = system: LC3 protein; assay: LC3 lipidation (LC3-II/LC3-I) assay by Western blot in HeLa cells; format: cell-based; conditions: 24 hours treatment, relative to vehicle control (DMSO)
Protocol: (§1) HeLa cells were seeded in 6-well plates (700,000 cells) and allowed to adhere overnight. Media was replaced one hour before administering either vehicle (DMSO) or test compounds. After 24 hours of treatment, the media was discarded, and cells were rinsed once with ice-cold 1×PBS before detached from plates with ice-cold RIPA Lysis and Extraction Buffer (Thermo Fisher Scientific) which was supplemented with protease and phosphatase inhibitors. The resulting cell suspensions were transferred to pre-chilled microcentrifuge tubes, incubated on ice for 20 min with intermittent mixing and then centrifuged at 12,000 rpm for 20 min at 4° C. The supernatants were then aspirated slowly and transferred into new tubes kept on ice. The protein concentration in the samples was determined using BCA kit (Thermo Fisher Scientific) as per manufacturer's instructions.
(§2) For the p62 oligomerization and LC3 lipidation assays, cell lysates were prepared using RIPA buffer supplemented with 2% SDS and benzonase (Sigma). The lysates were then combined with 4× Laemmli protein sample buffer (Bio-Rad), heated at 70° C. for 10 min and subjected to a brief centrifugation of 10-15 seconds.
(§3) For p62 oligomerization and LC3 lipidation assays, lysates containing 30 μg of protein and for BRD4 and FKBP12(F36V) degradation assays, lysates containing 20 μg of protein, were loaded slowly into the wells of 4-20% gradient Tris-glycine gels (Bio-Rad). The gels were run at 100V until completion and transferred onto PVDF membranes. Membranes were blocked using 5% milk in TBS-Tween (0.1%) buffer at room temperature for 1 hour. The membranes were incubated with primary antibody in 5% milk-TBST with shaking, overnight at 4° C. The primary antibodies used were: p62 (Novus Biologicals 2C11, H00008878-MO1), LC3A/B (Cell Signalling Technology D3U4C, 12741S), FKBP12 (Abcam ab24373), BRD4 (Cell Signalling Technology E2A7X, 13440S), GAPDH (Cell Signalling Technology D4C6R, 97166S), and β-Actin (Proteintech 66009-1-Ig). Following primary antibody incubation, membranes were washed thrice with TBST 10 min before and after incubation with secondary-HRP conjugated antibody in 5% milk-TBST for 1 hour at room temperature. The secondary antibodies used were: Anti-Mouse IgG HRP Conjugate (Promega W4021B) and Anti-Rabbit IgG HRP Conjugate (Promega W4011). For the p62 oligomerization assay, the total protein levels were assessed using Ponceau staining (Thermo Fisher Scientific) of PVDF membrane as per recommendation by manufacturer's guidelines.
(§4) Imaging was acquired using SuperSignal™ West Pico PLUS Chemiluminescent Substrate (Thermo Fisher Scientific) with iBright Invitrogen FL100 imaging system. Band signal intensity, reflective of protein concentrations, were quantified using Invitrogen™ iBright™ Analysis and Image J software.
HeLa cells were treated with compounds for 24 hours to evaluate the effect of these compounds on LC3-II/LC3-I levels, a measure of autophagy activation. The changes in levels of LC3-I, LC3-II and […] (loading control) were assessed by Western blotting, as described in experimental procedures. The fold increase of LC3-II/LC3-I levels induced by compound treatment relative to vehicle control (DMSO) was determined and summarized in Table 9. Specifically, FIGS. 3A-C show Western blot images and their corresponding quantification showing the lipidation levels of LC3 protein (LC3-II/LC3-I) by 24 hours compound treatments at listed concentrations, relative to vehicle control (DMSO) in HeLa cells.

[2] = molecular target: T1, p62 oligomers (Homo sapiens, UniProt Q13501); assay: p62 oligomerization assay by Western blot in HeLa cells; format: cell-based; conditions: 24 hours treatment, relative to vehicle control (DMSO)
T1 construct: endogenous in cells; host or cells: HeLa
T1 sequence (Q13501 whole entry): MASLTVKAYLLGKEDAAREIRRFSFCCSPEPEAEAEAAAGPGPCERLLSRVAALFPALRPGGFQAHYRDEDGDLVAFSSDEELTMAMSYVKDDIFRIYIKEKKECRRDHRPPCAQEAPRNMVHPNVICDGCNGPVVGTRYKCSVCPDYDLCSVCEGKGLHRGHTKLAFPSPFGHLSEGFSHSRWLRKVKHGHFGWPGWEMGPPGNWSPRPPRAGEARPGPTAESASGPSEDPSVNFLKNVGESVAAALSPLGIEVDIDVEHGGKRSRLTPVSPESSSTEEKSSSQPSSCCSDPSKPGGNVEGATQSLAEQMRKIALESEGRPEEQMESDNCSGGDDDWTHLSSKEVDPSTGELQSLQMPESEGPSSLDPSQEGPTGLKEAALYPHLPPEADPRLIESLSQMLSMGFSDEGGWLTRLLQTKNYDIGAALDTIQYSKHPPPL
Protocol: as §1, §2, §3, §4
HeLa cells were treated with compounds for 24 hours to evaluate the effect of these compounds on p62 oligomerisation activity. The resulting changes in levels of p62 oligomers were assessed by Western blotting, as described in experimental procedures. The fold change of p62 oligomer levels induced by compound treatment relative to vehicle control (DMSO) was determined and summarized in Table 8. Specifically, FIGS. 2A-C show Western blot images and their corresponding quantification showing the levels of high molecular weight (100-200 kDa) p62 oligomers by 24 hours compound treatments at listed concentrations, relative to vehicle control (DMSO) in HeLa cells. Protein loading consistencies was assessed by Ponceau staining (not shown).

Row | SMILES | LC3 lipidation (fold increase of LC3-II/LC3-I levels) [1] | p62 oligomerization (fold change of p62 oligomer levels) [2]
1 | OCCNCc1cccc2c1ccn2Cc1ccccc1 [Compound 1, 2-(((1-benzyl-1H-indol-4-yl)methyl)amino)ethan-1-ol] | + (<2-fold change in LC3-II/LC3-I relative to DMSO control) | ++ (>2-fold change relative to DMSO control)
2 | OCCNCc1cc(F)cc2c1ccn2Cc1ccc(F)cc1 [Compound 44] | ++ (>2-fold change in LC3-II/LC3-I relative to DMSO control) | ++ (>2-fold change relative to DMSO control)
3 | OCCNCc1cc(F)cc2c1ccn2Cc1ccc(Cl)cc1 [Compound 45, 2-(((1-(4-chlorobenzyl)-6-fluoro-1H-indol-4-yl)methyl)amino)ethan-1-ol] | ++ (>2-fold change in LC3-II/LC3-I relative to DMSO control) | ++ (>2-fold change relative to DMSO control)
